In patent US11324829B2, “Antiseptic agent comprising meglumine or salt thereof” (priority 2016, dated 2022):

Tested on: E. coli, P. aeruginosa, S. aureus, C. albicans, A. brasiliensis
Assay: Evaluation against category IA standard, Preservatives-Effectiveness Tests, Japanese Pharmacopoeia 16th edition (all 5 strains)
Format: cell-based
Conditions: summary of Tables 1 to 3, against each of the strains
Procedure: The following strains were used as inoculum strains.
A test sample of each formulation was inoculated with an inoculum microorganism liquid so that the concentration of the microorganism liquid in the test sample was 10^5 to 10^6 cells/mL (for each of the 5 strains). Specifically, an inoculum microorganism liquid was prepared for each strain at 10^7 to 10^8 cfu/mL, and inoculated into a test sample of each of Examples 1 to 11 and Comparative Example 1, and uniformly mixed to obtain a sample, so that the inoculum microorganism liquid was at 10^5 to 10^6 cfu/mL. These samples were stored at 20 to 25° C. under a light shielding condition. At sampling points (after 14 days or 28 days), 1 mL of each sample was withdrawn with a micropipette to measure a viable cell count. […]
The test results in Tables 1 to 3 are each shown as the common logarithm value of the ratio (B/A) of a cell count (B) at the time of inoculation to a cell count (A) of viable cells. For example, the value “1” means that the measured viable cell count is as low as 10% of the inoculum cell count. Further, the formulations were evaluated whether they satisfied the standard of “category IA” according to the informative “Preservatives-Effectiveness Tests” defined in The Japanese Pharmacopoeia, 16th edition.

Structure (SMILES): CNC[C@H](O)[C@@H](O)[C@H](O)[C@H](O)CO [meglumine, Meglumine]
- Antiseptic effect (in words): alone has an antiseptic effect
